From patent publication US12377164B2, “Linkers and conjugates” (ASTRAZENECA AB, priority 2018, dated 2025)
One block for each molecule: values may come before it. Non-standard residues stand in square brackets, D forms with d. Residues, ends and D or L forms follow the SMILES beside them. *: point of attachment. Dolaproine = CO[C@@H]([C@@H]1CCCN1)[C@@H](C)C(=O)O; Dil = CC[C@H](C)[C@H](NC)[C@@H](CC(=O)O)OC; X1 = C[C@@H](N*)[C@@H](O)c1ccccc1; NMeV = CN[C@H](C(=O)O)C(C)C

Experiments:
[1] = Stability of model cysteine conjugates incubated with excess reduced L-glutathione (GSH), tracked via 1H NMR; format: physicochemical; conditions: 3 equivalents GSH, pH 7.4 buffer, 37° C., after two weeks
Method: The stability of conjugate 3 under physiological conditions was investigated by incubation with excess (3 equivalents) reduced L-glutathione (GSH) in pH 7.4 buffer (40% CD-3OD/NaPi—50 mM) at 37° C. The stability was tracked via ^1H NMR and almost no degradation (<5%) was observed after two weeks.

[2] = test system: HER2-positive SKBR3 and BT474 cells; assay: Cell viability (CellTiter-Glo), HER2-positive cells; format: cell-based; conditions: 96 h, HER2-positive cell lines, FIG. 2
Method: (§1) HER2-positive SKBR3 and BT474 cells were obtained from the American Type Culture Collection (ATCC) and HER2-negative MCF7 and T47D cells were obtained from the European Collection of Authenticated Cell Cultures (ECACC) and ATCC, respectively. SKBR3 cells were maintained in high glucose McCoy's 5A medium, supplemented with 10% heat-inactivated foetal-bovine serum (FBS), 50 U/mL penicillin and 50 μg/mL streptomycin. MCF7 cells were maintained in Dulbecco's Modified Eagle Medium (DMEM) supplemented with 10% heat-inactivated fetal-bovine serum (FBS), 2 mM L-glutamine, 50 U/mL penicillin and 50 μg/mL streptomycin. BT474 and T47D cell lines were maintained in RPM11640 medium supplemented with 10% heat-inactivated fetal-bovine serum (FBS), 2 mM L-glutamine, 50 U/mL penicillin and 50 μg/mL streptomycin. All cell lines were incubated at 37° C. with 5% CO2.
(§2) Cells were seeded in 96-well plates for 24 h at 37° C. with 5% CO2. SKBR3 cells were seeded at 15,000 cells/well, BT474 cells were seeded at 20,000 cells/well, MCF7 cells were seeded at 7,500 cells/well and T47D cells were seeded at 10,000 cells/well. […] Cell viability was measured using CellTiter-Glo viability assay (Promega) according to the manufacturer's instructions. Cell viability was plotted as a percentage of untreated cells.

[3] = test system: HER2-negative MCF7 and T47D cells; assay: Cell viability (CellTiter-Glo), HER2-negative cells; format: cell-based; conditions: 96 h, HER2-negative cell lines, FIG. 2
Method: as §1, §2

[4] = test system: trastuzumab Fab; assay: Trastuzumab Fab conjugation kinetic experiment (LC-MS); conditions: 10 and 20 equivalents of linker, after 15 minutes, 37° C.
Method: The mixtures were vortexed and incubated at 37° C. for 1 h. A solution of 8 (10 mM in DMSO) was added to each solution (final concentration equal to 10 and 20 equivalents) and the reaction mixture incubated at 37° C. At t=0, 5, 10, 15, 20, 30, 40 and 60 min, 0.5 μL was removed from each reaction, diluted with MilliQ water (9 μL) and quenched with 100 eq. of cysteine (5 mM in DMSO). LC-MS analysis was then used to quantify conversion.

degradation [1]: < 5%
Structure (SMILES): COC(=O)[C@H](CSCCc1ccnc(N)n1)NC(=O)OC(C)(C)C [compound 3]

Structure (SMILES): CC[C@H](C)[C@@H]([C@@H](CC(=O)N1CCC[C@H]1[C@H](OC)[C@@H](C)C(=O)N[C@H](C)[C@@H](O)c1ccccc1)OC)N(C)C(=O)[C@@H](NC(=O)[C@@H](NC)C(C)C)C(C)C [MMAE] (H-[NMeV]V[Dil][Dolaproine]-X1)
cytotoxicity (cell viability) [2]: high levels of cytotoxicity
cytotoxicity (cell viability) [3]: high levels of cytotoxicity

Structure (SMILES): C#CCCCCNc1nc(C=C)cc(C=C)n1 [compound 8, N-(hex-5-yn-1-yl)-4,6-divinylpyrimidin-2-amine]
re-bridging of the Fab chains [4]: > 90%

Structure (SMILES): COC(=O)[C@H](CSC1CC(=O)N(Cc2ccccc2)C1=O)NC(=O)OC(C)(C)C (stereo partly drawn) [compound 6, methyl S-(1-benzyl-2,5-dioxopyrrolidin-3-yl)-N-(tert-butoxycarbonyl)-L-cysteinate]
conversion to the glutathione conjugate [1]: > 50%
